In patent US20260327221A1, “INHIBITORS OF CYCLIC GMP-AMP SYNTHASE AND USES THEREOF” (Ventus Therapeutics U.S., Inc., priority 2023, published 2026):
Read-outs that look alike come from different tables or passages of the source.

Target: hcGAS (Homo sapiens, UniProt Q8N884)
Experiment: hcGAS LCMS assay (direct measurement of cGAMP production by LC/MS)
Format: biochemical
Protocol: cGAS catalyzes the cyclization of ATP and GTP to produce cGAMP, which is the activating ligand of STING. Human cGAS (hcGAS) inhibition can thus be quantified by measuring how much cGAMP is formed either indirectly, by monitoring ATP-depletion as in the hcGAS Kinase-Glo assay (as described below), or directly, such as using the hcGAS LCMS assay (as described below).
2. hGAS LCMS Assay Conditions
Compounds were tested for their hcGAS inhibition activity using direct measurement of cGAMP production by LC/MS. Briefly, compounds were incubated with enzyme and substrates for 4 hours (see Table C), before the reaction was stopped with 3 volumes of 70/30 Acetonitrile/H2O mix containing 0.15 uM cGAMP-^13C10^15N5 as internal standard and mixed for 5 mmn. After centrifugation (3700 rpm, […], […]), 100 uL of each reaction was collected and mixed to equal volume of acetonitrile (MeCN). Samples were then analyzed on Qexactive (Column: XBridge BEH Amide Column, 130 Å, 3.5 μm, 3 mm×50 mm. Mobile phase A: 10 mM Ammonium acetate in 95/5 H2O/MeCN (0.5% DMSO), Mobile phase B: MeCN (0.5% DMSO).
The results of the assay, expressed as IC50 values, are reported in Table D with the following designations: A represents an IC50 value <0.005 μM (with A1 representing an IC50 value <0.0005 μM, A2 representing an IC50 value ≥0.0005 μM and <0.001 μM, and A3 representing an IC50 value ≥0.001 μM and <0.005 μM); B represents an IC50 value ≥0.005 μM and <0.02 μM; C represents an IC50 value ≥0.02 μM and <0.06 μM; and D represents an IC50 value ≥0.06 μM.

[1] = 4 h incubation with enzyme and substrates, cGAMP production by LC/MS, class symbols, read-out: hcGAS LCMS IC50
[2] = hcGAS 0.5 nM, ATP 100 μM, GTP 100 μM, dsDNA 25 nM, pH 7.4, 4 h incubation, read-out: hcGAS inhibition IC50 (activity class, Table D)

Chain of hcGAS (Q8N884 whole entry): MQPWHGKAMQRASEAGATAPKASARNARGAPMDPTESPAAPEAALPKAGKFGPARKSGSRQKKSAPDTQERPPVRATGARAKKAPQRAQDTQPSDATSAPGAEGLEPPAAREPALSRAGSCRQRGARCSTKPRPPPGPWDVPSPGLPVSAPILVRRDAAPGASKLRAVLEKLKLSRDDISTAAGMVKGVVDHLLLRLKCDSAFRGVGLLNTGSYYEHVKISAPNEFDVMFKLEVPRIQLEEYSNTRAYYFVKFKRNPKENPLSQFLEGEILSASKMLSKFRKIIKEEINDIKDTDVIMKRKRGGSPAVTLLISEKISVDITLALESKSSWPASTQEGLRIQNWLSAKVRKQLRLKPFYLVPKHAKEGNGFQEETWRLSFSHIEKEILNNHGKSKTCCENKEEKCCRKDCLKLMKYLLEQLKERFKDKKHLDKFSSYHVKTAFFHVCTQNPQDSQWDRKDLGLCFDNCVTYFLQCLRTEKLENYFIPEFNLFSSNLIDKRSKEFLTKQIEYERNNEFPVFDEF

Structure (SMILES)	IC50 [1] [nM]	IC50 [2] [nM]	cGAS potency relative to Compound 1 (compared with Compound 1, from activity classes of Table D)
COc1cccc(OC)c1-c1cc(C(=O)Nc2nnc(-n3nccc3N)s2)oc(=O)c1O[C@H]1CCCC[C@@H]1O (single isomer, unassigned) [110B*]	0.5 to 1		
COCC(C)(C)COc1c(-c2ncccc2OC)cc(C(=O)Nc2nnc(-n3nccc3N)s2)oc1=O [Compound 29, N-(5-(5-amino-1H-pyrazol-1-yl)-1,3,4-thiadiazol-2-yl)-3-(3-methoxy-2,2-dimethylpropoxy)-4-(3-methoxypyridin-2-yl)-2-oxo-2H-pyran-6-carboxamide]	1 to 5		
COc1c(-c2ccccc2C#N)cc(C(=O)Nc2nnc(-n3nccc3C)s2)oc1=O [Compound 1, 4-(2-cyanophenyl)-3-methoxy-N-(5-(5-methyl-1H-pyrazol-1-yl)-1,3,4-thiadiazol-2-yl)-2-oxo-2H-pyran-6-carboxamide]	0.5 to 1	0.5 to 1	
COc1cccc(OC)c1-c1cc(C(=O)Nc2nnc(-n3nccc3N)s2)oc(=O)c1O[C@H]1CCOC1 [52A*, (S)-N-(5-(5-amino-1H-pyrazol-1-yl)-1,3,4-thiadiazol-2-yl)-4-(2,6-dimethoxyphenyl)-2-oxo-3-((tetrahydrofuran-3-yl)oxy)-2H-pyran-6-carboxamide]	< 0.5		
COCCOc1c(-c2c(O)cccc2Cl)cc(C(=O)Nc2nnc(-n3nccc3N)s2)oc1=O [Compound 41, N-(5-(5-amino-1H-pyrazol-1-yl)-1,3,4-thiadiazol-2-yl)-4-(2-chloro-6-hydroxyphenyl)-3-(2-methoxyethoxy)-2-oxo-2H-pyran-6-carboxamide]	< 0.5	< 0.5	improved cGAS potency
COc1cccnc1-c1cc(C(=O)Nc2nnc(-n3nccc3N)s2)oc(=O)c1O[C@H]1CC[C@H](O)C1 (single isomer, unassigned) [112B*]	1 to 5		
COCCOc1c(-c2c(C#N)cccc2OC)cc(C(=O)Nc2nnc(-n3nccc3C(F)F)s2)oc1=O [Compound 23, 4-(2-cyano-6-methoxyphenyl)-N-(5-(5-(difluoromethyl)-1H-pyrazol-1-yl)-1,3,4-thiadiazol-2-yl)-3-(2-methoxyethoxy)-2-oxo-2H-pyran-6-carboxamide]	0.5 to 1		
COCCOc1c(-c2c(C#N)ccnc2OC)cc(C(=O)Nc2nnc(-n3nccc3N)s2)oc1=O [Compound 66, N-(5-(5-amino-1H-pyrazol-1-yl)-1,3,4-thiadiazol-2-yl)-4-(4-cyano-2-methoxypyridin-3-yl)-3-(2-methoxyethoxy)-2-oxo-2H-pyran-6-carboxamide]	0.5 to 1		
COc1c(-c2ccccc2P(C)(C)=O)cc(C(=O)Nc2nnc(-n3nccc3C)s2)oc1=O [Compound 3, 4-(2-(dimethylphosphoryl)phenyl)-3-methoxy-N-(5-(5-methyl-1H-pyrazol-1-yl)-1,3,4-thiadiazol-2-yl)-2-oxo-2H-pyran-6-carboxamide]	20 to 60		
COC[C@H](C)Oc1c(-c2c(OC)cccc2OC)cc(C(=O)Nc2nnc(-n3nccc3N)s2)oc1=O [Compound 47A, (S)—N-(5-(5-amino-1H-pyrazol-1-yl)-1,3,4-thiadiazol-2-yl)-4-(2,6-dimethoxyphenyl)-3-((1-methoxypropan-2-yl)oxy)-2-oxo-2H-pyran-6-carboxamide]	1 to 5		
COc1cccc(OC)c1-c1cc(C(=O)Nc2nnc(-n3nccc3N)s2)oc(=O)c1OCC1(OC)CCC(O)CC1 (centres unmarked) [99A*/99B*]	1 to 5		
COc1cccc(OC)c1-c1cc(C(=O)Nc2nnc(-n3nccc3N)s2)oc(=O)c1O[C@@H]1CC[C@H](O)C1 (relative stereo) [64C*/D*]	0.5 to 1		
COCCOc1c(-c2ncccc2C#N)cc(C(=O)Nc2nnc(-n3nccc3N)s2)oc1=O [Compound 9, N-(5-(5-amino-1H-pyrazol-1-yl)-1,3,4-thiadiazol-2-yl)-4-(3-cyanopyridin-2-yl)-3-(2-methoxyethoxy)-2-oxo-2H-pyran-6-carboxamide]	0.5 to 1		
COCCCOc1c(-c2ncccc2OC)cc(C(=O)Nc2nnc(-n3nccc3N)s2)oc1=O [Compound 21, N-(5-(5-amino-1H-pyrazol-1-yl)-1,3,4-thiadiazol-2-yl)-3-(3-methoxypropoxy)-4-(3-methoxypyridin-2-yl)-2-oxo-2H-pyran-6-carboxamide]	1 to 5		
COc1cccc(OC)c1-c1cc(C(=O)Nc2nnc(-n3nccc3N)s2)oc(=O)c1O[C@H]1CC[C@H](O)CC1 [Compound 108A, N-(5-(5-amino-1H-pyrazol-1-yl)-1,3,4-thiadiazol-2-yl)-4-(2,6-dimethoxyphenyl)-3-(((1r,4r)-4-hydroxycyclohexyl)oxy)-2-oxo-2H-pyran-6-carboxamide]	< 0.5		

Now from value to molecule:

IC50 [1] [nM]	IC50 [2] [nM]	cGAS potency relative to Compound 1 (compared with Compound 1, from activity classes of Table D)	Structure (SMILES)
1 to 5			COc1cccc(OC)c1-c1cc(C(=O)Nc2nnc(-n3nccc3N)s2)oc(=O)c1O[C@@H](CO)CN1CCSCC1 [81B*, (R)-N-(5-(5-amino-1H-pyrazol-1-yl)-1,3,4-thiadiazol-2-yl)-4-(2,6-dimethoxyphenyl)-3-((1-hydroxy-3-thiomorpholinopropan-2-yl)oxy)-2-oxo-2H-pyran-6-carboxamide]
0.5 to 1			COc1cccc(OC)c1-c1cc(C(=O)Nc2nnc(-n3nccc3N)s2)oc(=O)c1OC[C@@H]1CCCO1 [56A*, (S)-N-(5-(5-amino-1H-pyrazol-1-yl)-1,3,4-thiadiazol-2-yl)-4-(2,6-dimethoxyphenyl)-2-oxo-3-((tetrahydrofuran-2-yl)methoxy)-2H-pyran-6-carboxamide]
0.5 to 1			COc1cccc(OC)c1-c1cc(C(=O)Nc2nnc(-n3nccc3N)s2)oc(=O)c1OCCN1CC2(CSC2)C1 [Compound 65, 3-(2-(2-thia-6-azaspiro[3.3]heptan-6-yl)ethoxy)-N-(5-(5-amino-1H-pyrazol-1-yl)-1,3,4-thiadiazol-2-yl)-4-(2,6-dimethoxyphenyl)-2-oxo-2H-pyran-6-carboxamide]
1 to 5			COc1cccc(OC)c1-c1cc(C(=O)Nc2nnc(-n3nccc3N)s2)oc(=O)c1OC[C@H](CO)N1CCSCC1 [79B*, (S)-N-(5-(5-amino-1H-pyrazol-1-yl)-1,3,4-thiadiazol-2-yl)-4-(2,6-dimethoxyphenyl)-3-(3-hydroxy-2-thiomorpholinopropoxy)-2-oxo-2H-pyran-6-carboxamide]
1 to 5			COc1cccc(OC)c1-c1cc(C(=O)Nc2nnc(-n3nccc3N)s2)oc(=O)c1OCC(CO)N1CCOCC1 (racemic) [Rac-85, N-(5-(5-amino-1H-pyrazol-1-yl)-1,3,4-thiadiazol-2-yl)-4-(2,6-dimethoxyphenyl)-3-(3-hydroxy-2-morpholinopropoxy)-2-oxo-2H-pyran-6-carboxamide]
0.5 to 1			COc1cccc(OC)c1-c1cc(C(=O)Nc2nnc(-n3nccc3N)s2)oc(=O)c1OCCN1C2CSCC1C2 [Compound 94, 3-(2-(3-thia-6-azabicyclo[3.1.1]heptan-6-yl)ethoxy)-N-(5-(5-amino-1H-pyrazol-1-yl)-1,3,4-thiadiazol-2-yl)-4-(2,6-dimethoxyphenyl)-2-oxo-2H-pyran-6-carboxamide]
0.5 to 1			COc1cccc(OC)c1-c1cc(C(=O)Nc2nnc(-n3nccc3N)s2)oc(=O)c1OCCCO [Compound 40, N-(5-(5-amino-1H-pyrazol-1-yl)-1,3,4-thiadiazol-2-yl)-4-(2,6-dimethoxyphenyl)-3-(3-hydroxypropoxy)-2-oxo-2H-pyran-6-carboxamide]
0.5 to 1			COc1cccc(OC)c1-c1cc(C(=O)Nc2nnc(-n3nccc3N)s2)oc(=O)c1OCCN1CC2(CCS2)C1 [Compound 72, 3-(2-(1-thia-6-azaspiro[3.3]heptan-6-yl)ethoxy)-N-(5-(5-amino-1H-pyrazol-1-yl)-1,3,4-thiadiazol-2-yl)-4-(2,6-dimethoxyphenyl)-2-oxo-2H-pyran-6-carboxamide]
0.5 to 1			COc1cccc(OC)c1-c1cc(C(=O)Nc2nnc(-n3nccc3N)s2)oc(=O)c1OCCN1C[C@@H]2C[C@H]1CS2 [93A*, 3-(2-((1S,4S)-2-thia-5-azabicyclo[2.2.1]heptan-5-yl)ethoxy)-N-(5-(5-amino-1H-pyrazol-1-yl)-1,3,4-thiadiazol-2-yl)-4-(2,6-dimethoxyphenyl)-2-oxo-2H-pyran-6-carboxamide]
0.5 to 1			COc1cccc(OC)c1-c1cc(C(=O)Nc2nnc(-n3nccc3N)s2)oc(=O)c1OCCCN1CCSCC1 [Compound 88, N-(5-(5-amino-1H-pyrazol-1-yl)-1,3,4-thiadiazol-2-yl)-4-(2,6-dimethoxyphenyl)-2-oxo-3-(3-thiomorpholinopropoxy)-2H-pyran-6-carboxamide]
1 to 5			COC[C@H](CO)COc1c(-c2c(OC)cccc2OC)cc(C(=O)Nc2nnc(-n3nccc3N)s2)oc1=O [92B*, (S)-N-(5-(5-amino-1H-pyrazol-1-yl)-1,3,4-thiadiazol-2-yl)-4-(2,6-dimethoxyphenyl)-3-(3-hydroxy-2-(methoxymethyl)propoxy)-2-oxo-2H-pyran-6-carboxamide]
